Data: US5821353A, “DNA encoding 1,3 beta-D glucan synthase subunits” (Merck & Co., Inc., priority 1996, dated 1998)
Converted amounts (≈) assume the structure as drawn. *1 amine or outer side, *2 acyl side, *3 side chain or, on linkers, in order; H or OH if unused. Where a SMILES comes first, the peptide text is derived from it. Bridges are numbered along the chain shown (N, C = ends). [ ]: non-standard residue; d: D form. The star is where a group is joined. ξ: configuration not given here. ξOrn(4,5-diOH) = O=C(C(CC(O)C(O)N[*:3])N[*:1])[*:2]; ξhTyr(βξ-OH,γξ-OH) = NC(C(=O)O)C(O)C(O)c1ccc(O)cc1; ξPro(3ξ-OH,4ξ-Me) = CC1CNC(C(=O)O)C1O; Palmitoyl = CCCCCCCCCCCCCCCC(=O)*; Hyp = O=C(O)[CH]1C[CH](O)CN1

Assays:
[1] = system: S. cerevisiae YFK798 (fks1-1 + CN); test: primary screen, zone size on agar (calcineurin counter screen); type: cell-based, Saccharomyces cerevisiae; settings: 20 ng FK506, 10 mcg CsA, 10 mcg L733,560, 20 mcg aculeacin, 20 mcg papulacandin, 48 h
Experimental: Counter screening strains were devised for identifying calcineurin inhibitors. Overexpression of yeast calcineurin in the fks1-1 mutant (strain YFK798) constitutes the most general of these. […] Glucan synthase inhibitors show neither effect and thus can be distinguished from calcineurin inhibitors.
(§1) Each strain is grown at 28°-30° C. in YPAD/10 mM CaCl2 medium with shaking at 220 rpm (to mid or late log phase). The cultures are diluted 1:10 with water, and the OD values of the dilutions are measured at 600 nm (against a blank of YPAD/10 mM CaCl2 similarly diluted 1:10 in water). The OD value is multiplied by 10 to estimate the OD of the culture. Portions (100 ml) of YPAD/10 mM CaCl2 medium containing 1.5% agar, equilibrated at 45° C. in a water bath, are seeded with culture such that the final cell density in the agar would have an OD value of 0.015 (i.e., 3×10^6 cfu/ml; a sample calculation is provided below). The seeded agar is poured into 500 cm^2 Nunc plates. Once the agar plates have solidified, 10 mcL aliquots of samples containing test compounds, such as fermentation extracts, are dissolved in water, 100% methanol or ethanol, or up to 50% DMSO and are placed on each member of the two-plate set in 11 by 8 arrays.
(§2) The plates are incubated for 48 h at 28°-30° C. Diameters of the zones are read to the outermost edge and recorded in mm. The clarity of the zone is reported as clear (no designation), hazy (h), or very hazy (vh). Very hazy zones are best seen by viewing the plate under an elevated light placed between the assay dish and a dark wall.

S. cerevisiae R560-1C = test: secondary screen, zone size on agar; type: cell-based, Saccharomyces cerevisiae; settings: 20 ng FK506, 10 mcg CsA, 10 mcg L733,560, 20 mcg aculeacin, 20 mcg papulacandin
Experimental: (§3) For positively identifying glucan synthase inhibitors, screening with strain R560-1C and its parent W303-1A was instituted in a manner identical to that described for calcineurin inhibitors. Complete loss of a zone, or marked reduction in size, on R560-1C versus W303-1A indicates a glucan synthase inhibitor. No zones are seen with calcineurin inhibitors using this pair of strains.
as §1, §2

S. cerevisiae W303-1A = test: secondary screen, zone size on agar; type: cell-based, Saccharomyces cerevisiae; settings: 20 ng FK506, 10 mcg CsA, 10 mcg L733,560, 20 mcg aculeacin, 20 mcg papulacandin
Experimental: as §3, §1, §2

[2] = system: S. cerevisiae wild type YFK0005; test: MIC assay; type: cell-based, Saccharomyces cerevisiae; settings: less than 10% growth of no-drug control, 42 hours, 28° C.
Experimental: (§4) The sensitivities of pcr1(fks2-1) fks1-1 and pcr1(fks2-1) FKS1 strains to L-733,560, L-636,947 (Aculeacin), and L-687,781 (Dihydropapulocandin) were determined in MIC assays. Briefly, strains were grown to stationary phase in 5.0 ml of liquid YPAD medium. MY2256 precultures were grown in liquid YPAD10Ca. MIC assays were performed in flat well microtiter plates in triplicate. Each well of the microtiter plate was filled with 100 mcL of YPAD medium. To the first well, 100 mcL of a 4× solution of drug in YPAD medium was added. To serve as a control, a stock solution of […] of YPAD was made. 100 mcL of this solution was added to the initial well for strains grown in the presence of solvent but the absence of drug. Two-fold serial dilutions of the drug were performed down the plate.
(§5) Cultures were diluted to 5×10^5 cells/ml in YPAD (1 OD660 =3.3×10^7 cells/ml). 100 mcL of diluted culture was added to each well, resuspended, and incubated at 28° C. After 42 hours, cultures were resuspended and cells densities measured in an SLT Laboratories 340 ATTC microtiter plate reader. The MICs concentrations presented in the table below represent the concentrations of drug that result in less than 10% growth of the strain grown in the absence of drug.

[3] = system: S. cerevisiae FKS1 pcr1 (fks2-1): MY2257, MY2258; test: MIC assay; type: cell-based, Saccharomyces cerevisiae; settings: less than 10% growth, 42 hours
Experimental: as §4, §5

[4] = system: S. cerevisiae fks1-1 PCR1 YFK0688-14B; test: MIC assay; type: cell-based, Saccharomyces cerevisiae; settings: less than 10% growth of no-drug control, 42 hours, 28° C.
Experimental: as §4, §5

[5] = system: S. cerevisiae fks1-1 pcr1 (fks2-1): MY2256, YFK0996-11B, MY2259, MY2260; test: MIC assay; type: cell-based, Saccharomyces cerevisiae; settings: less than 10% growth, 42 hours
Experimental: as §4, §5

[6] = system: S. cerevisiae YFK007 (wild type); test: primary screen, zone size on agar; type: cell-based, Saccharomyces cerevisiae; settings: 20 ng FK506, 10 mcg CsA, 10 mcg L733,560, 20 mcg aculeacin, 20 mcg papulacandin, 48 h
Experimental: as §1, §2

[7] = system: S. cerevisiae YFK532-7C (fks1-1); test: primary screen, zone size on agar; type: cell-based, Saccharomyces cerevisiae; settings: 20 ng FK506, 10 mcg CsA, 10 mcg L733,560, 20 mcg aculeacin, 20 mcg papulacandin, 48 h
Experimental: as §1, §2

S. cerevisiae MY2256 = test: MIC assay; type: cell-based; settings: Saccharomyces cerevisiae, MY2256, 42 h
Experimental: as §4
(§6) Cultures were diluted to 5×10^5 cells/ml in YPAD (1 OD660 =3.3×10^7 cells/ml). 100 mcL of diluted culture was added to each well, resuspended, and incubated at 28° C. After 42 hours, cultures were resuspended and cells densities measured in an SLT Laboratories 340 ATTC microtiter plate reader.

[8] = system: S. cerevisiae YFK0931-07B; test: MIC assay; type: cell-based; settings: Saccharomyces cerevisiae, YFK093107B, 42 h; YFK0931-07B; read-out: MIC
Experimental: as §4, §6

[9] = system: S. cerevisiae FKS1 pcr1 spores; test: drug phenotype of segregants from tetrad analysis; type: cell-based, Saccharomyces cerevisiae
Source text: YFK0996-11B (MATa fks1-1 pcr1) was also crossed to YFK0005 (MATalpha FKS1 PCR1). In this cross, the pcr1 and fks1-1 mutations segregate independently. In the 16 four-spore and 20 three-spore tetrads, the segregation pattern of 1 Parental Ditype: 1 Non Parental Ditype : 4 Tetratype tetrads is indicative of two unlinked genes. […] Strains MY2257 (also known as YFK1088-23B, MATa FKS1 +pcr1), MY2258 (also known as YFK1088-16D, MATalpha FKS1+pcr1), and YFK1088-02D (MATa FKS1 +pcr1) were segregants from this cross. As shown in the table below, these segregants contain the pcr1 mutation in a wild-type FKS1 background and lack plasmid pDL1 present in the original mutant.

[10] = system: S. cerevisiae haploid strain with the insertion-deletion allele (fks1-5::HIS3 / fks1-6::HIS3); test: phenotype of haploid strain with FKS1 insertion-deletion allele; type: cell-based, Saccharomyces cerevisiae
Source text: An insertion-deletion allele of the fks1-1 complementing DNA was created in the following manner. The 8.8-kb SphI-PstI fragment of pFF133 was inserted between the SphI and PstI sites of the polylinker of the E. coli vector pGEM-5Zf(+) (Promega, Madison, Wis.) giving plasmid pFF174. The 1.3-kb BamHI-XhoI HIS3 fragment from plasmid pJJ215 (J. S. Jones and L. Prakash, Yeast, 6:363-366 (1990)) was inserted by blunt-end ligation (see Current Protocols, p. 3.5.10) between the two KpnI sites of plasmid pFF174 giving plasmids pFF186 (sense orientation) and pFF187 (antisense orientation). The 6.6-kb insertion-deletion fragments were excised by digestion with SstI+SphI and purified by agarose gel electrophoresis. The insertion-deletion mutation was created by one-step gene replacement (see R. Rothstein, GYG, pp. 281-301). This disruption was confirmed by Southern blot hybridization analysis of genomic DNA digested with PstI and probed with the 8.8-kb SphI-PstI fragment from plasmid pFF174. The undisrupted parent gives a single 9.8-kb genomic fragment which hybridizes with the probe. A disruption mutant in which HIS3 is inserted in the sense orientation, for example YFF2409, gives 3.9- and 3.7-kb fragments, while an antisense disruption mutant, for example YFF2411, gives 4.9- and 2.7-kb fragments. […]

[11] = system: S. cerevisiae YFK532-7C (fks1-1) versus YFK007; test: sensitivity of fks1-1 mutant relative to FKS1 wild-type strain; type: cell-based, Saccharomyces cerevisiae; settings: calcineurin inhibitors

SMILES	Primary Screen Zone size (mm) [1]	Secondary Screen Zone size (mm) (S. cerevisiae R560-1C)	Secondary Screen Zone size (mm) (S. cerevisiae W303-1A)	MIC [2]	MIC [3]	MIC [4]	MIC [5]	Primary Screen Zone size (mm) [6]	Primary Screen Zone size (mm) [7]	MIC (S. cerevisiae MY2256)	MIC [8]	drug resistance phenotype of spores [9]	drug sensitivity phenotype [10]	sensitivity of YFK532-7C relative to YFK007 [11]
CCCCCCCCCCCCCCCC(=O)NC1CC(O)C(O)NC(=O)C2C(O)C(C)CN2C(=O)C(C(C)O)NC(=O)C(C(O)C(O)c2ccc(O)cc2)NC(=O)C2CC(O)CN2C(=O)C(C(C)O)NC1=O [L-636,947, aculeacin] (Palmitoyl-[ξOrn(4,5-diOH)]T[Hyp][ξhTyr(βξ-OH,γξ-OH)]T[ξPro(3ξ-OH,4ξ-Me)]; lactam 1-C; configuration not given here)	27-30 mm	17-20 mm	18-22 mm	1 µg/mL (≈ 0.965 µM)	> 40 µg/mL	0.5 µg/mL (≈ 0.483 µM)	> 40 µg/mL	22-24 mm	27-30 mm	–	–	–	–	–
C=CC[C@@H]1/C=C(\C)C[C@H](C)C[C@H](OC)[C@H]2O[C@@](O)(C(=O)C(=O)N3CCCC[C@H]3C(=O)O[C@H](/C(C)=C/[C@@H]3CC[C@@H](O)[C@H](OC)C3)[C@H](C)[C@@H](O)CC1=O)[C@H](C)C[C@@H]2OC [FK506]	13 mm	none	none	–	–	–	–	none	15-17 mm	0.06 µg/mL (≈ 0.0746 µM)	0.03 µg/mL (≈ 0.0373 µM)	resistant	hypersensitive	at least a thousand fold more sensitive
